Experimental data as given in ChEMBL document CHEMBL5620430, “Design, synthesis and biological evaluation of indazole derivatives as selective covalent inhibitors of FGFR4 in wild-type and gatekeeper mutants” (Eur J Med Chem, 2023).
Calls of active or inactive are those of the source. The rule behind the calls is not given here.

Key:
[1] = Tmax in Sprague-Dawley rat at 2 mg/kg, iv by LC-MS/MS analysis; assay type: ADME, organism-based; conditions: in vivo
[2] = Tmax in Sprague-Dawley rat at 10 mg/kg, po by LC-MS/MS analysis; assay type: ADME, organism-based; conditions: in vivo
[3] = Toxicity in NSG mouse assessed as effect on heart at 20 to 40 mg/kg by H and E staining based analysis; assay type: organism-based; conditions: in vivo, dose 20-40 mg/kg
[4] = Toxicity in NSG mouse assessed as effect on ALP level at 20 to 40 mg/kg […]; assay type: organism-based; conditions: in vivo, dose 20-40 mg/kg
[5] = MRT (0 to t) in Sprague-Dawley rat at 2 mg/kg, iv by LC-MS/MS analysis; assay type: ADME, organism-based; conditions: in vivo
[6] = Toxicity in NSG mouse assessed as effect on CK level at 20 to 40 mg/kg […]; assay type: organism-based; conditions: in vivo, dose 20-40 mg/kg
[7] = tested on: Huh-7; experiment: Induction of cell cycle arrest in human Huh-7 cells assessed as accumulation of cells at G0/G1 phase at 1 to 2 uM measured after 48 hrs by propidium iodide staining based flow cytometry analysis; assay type: functional; conditions: dose 1-2 µM
[8] = tested on: Huh-7; experiment: Inhibition of cell migration in human Huh-7 cells at 5 uM incubated for 24 hrs by wound healing assay relative to control; assay type: functional
[9] = Toxicity in NSG mouse assessed as effect on lung at 20 to 40 mg/kg by H and E staining based analysis; assay type: organism-based; conditions: in vivo, dose 20-40 mg/kg
[10] = tested on: Huh-7; experiment: cells; conditions: Homo sapiens
Description: Antiproliferative activity against human Huh-7 cells measured after 24 to 48 hrs by MTT assay

[11] = Toxicity in NSG mouse assessed as effect on LDL-C level at 20 to 40 mg/kg […]; assay type: organism-based; conditions: in vivo, dose 20-40 mg/kg
[12] = Toxicity in NSG mouse assessed as effect on ALT level at 20 to 40 mg/kg […]; assay type: organism-based; conditions: in vivo, dose 20-40 mg/kg
[13] = Oral bioavailability in Sprague-Dawley rat at 10 mg/kg by LC-MS/MS analysis; assay type: ADME, organism-based; conditions: in vivo
[14] = target: Fibroblast growth factor receptor 4 (Homo sapiens, UniProt P22455); experiment: Inhibition of FGFR4 in human Huh-7 cells assessed as inhibition of MEK phosphorylation measured after 2 hrs by Western blot analysis; assay type: cell-based
Sequence of Fibroblast growth factor receptor 4 (P22455 22-802 limits assumed): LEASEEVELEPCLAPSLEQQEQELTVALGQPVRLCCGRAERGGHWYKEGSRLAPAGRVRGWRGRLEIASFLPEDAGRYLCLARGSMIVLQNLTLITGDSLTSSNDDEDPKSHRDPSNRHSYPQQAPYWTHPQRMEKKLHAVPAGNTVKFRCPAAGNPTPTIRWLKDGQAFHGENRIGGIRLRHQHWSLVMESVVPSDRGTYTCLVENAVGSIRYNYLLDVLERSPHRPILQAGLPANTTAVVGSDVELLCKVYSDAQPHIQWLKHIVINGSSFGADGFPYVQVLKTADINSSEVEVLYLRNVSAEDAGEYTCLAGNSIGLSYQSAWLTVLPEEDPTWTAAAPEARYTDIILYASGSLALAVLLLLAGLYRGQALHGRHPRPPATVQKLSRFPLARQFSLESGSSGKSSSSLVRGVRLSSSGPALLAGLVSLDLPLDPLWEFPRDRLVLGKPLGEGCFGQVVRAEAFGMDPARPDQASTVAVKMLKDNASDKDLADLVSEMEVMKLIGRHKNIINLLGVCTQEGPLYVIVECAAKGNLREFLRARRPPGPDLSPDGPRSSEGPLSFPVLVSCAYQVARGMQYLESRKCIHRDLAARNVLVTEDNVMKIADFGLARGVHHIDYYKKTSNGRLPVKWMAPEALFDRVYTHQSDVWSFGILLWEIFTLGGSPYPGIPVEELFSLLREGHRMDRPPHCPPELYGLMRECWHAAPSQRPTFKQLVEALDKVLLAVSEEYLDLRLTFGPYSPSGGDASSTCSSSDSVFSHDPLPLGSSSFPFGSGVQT

[15] = Toxicity in NSG mouse assessed as effect on liver at 20 to 40 mg/kg by H and E staining based analysis; assay type: organism-based; conditions: in vivo, dose 20-40 mg/kg
[16] = Antiproliferative activity against human L02 cells measured after 24 to 48 hrs by MTT assay; assay type: toxicity, cell-based

With C=CC(=O)Nc1cc2c(cc1-c1n[nH]c3ccc(O[C@H](C)c4c(Cl)cncc4Cl)cc13)CCN(C)C2 the Tmax [1] was 4.8 min, the Tmax [2] was 1.67 h and the Activity [3] was “Non-Toxic”. For the same molecule, the Activity [4] was “Non-Toxic”, the MRT last [5] was 1.55 h and the Activity [6] was “Non-Toxic”. The Activity [7] was “Active”, the inhibition at 5 µM [8] was 90% and the Activity [9] was “Non-Toxic”. The IC50 [10] was 21 nM, the Activity [11] was “Non-Toxic” and the Activity [12] was “Non-Toxic”. The bioavailability [13] was 1.36%, the inhibition [14] was “Dose-Dependent Effect” and the Activity [15] was “Non-Toxic”. The IC50 [16] was > 10000 nM.
